Laboratory results as given in ChEMBL document CHEMBL1201862, “PubChem BioAssay data set” (2004).
Activity calls are given as the source filed them.

Key:
Assay type in all cases: functional
[1] = biological target: Protein kinase C theta type (Homo sapiens, UniProt Q04759); experiment: Navigating the Kinome. Panel member name: PRKCQ
[2] = biological target: Dual specificity mitogen-activated protein kinase kinase 1 (Homo sapiens, UniProt Q02750); experiment: Navigating the Kinome. Panel member name: MAP2K1
[3] = biological target: Serine/threonine-protein kinase TBK1 (Homo sapiens, UniProt Q9UHD2); experiment: Navigating the Kinome. Panel member name: TBK1
[4] = biological target: 5'-AMP-activated protein kinase catalytic subunit alpha-1 (Homo sapiens, UniProt Q13131)
[5] = biological target: Tyrosine-protein kinase SYK (Homo sapiens, UniProt P43405)
[6] = biological target: Serine/threonine-protein kinase 17A (Homo sapiens, UniProt Q9UEE5)
[7] = biological target: Mitogen-activated protein kinase 8 (Homo sapiens, UniProt P45983);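 further: value comes from one member of a kinome-wide kinase profiling panel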
[8] = biological target: Serine/threonine-protein kinase pim-1 (Homo sapiens, UniProt P11309)
Aurora kinase A = biological target: T1, Aurora kinase A (Homo sapiens, UniProt O14965);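 further: value from the Navigating the Kinome kinase panel profiling, panel entry STK6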
T1 sequence (O14965 whole entry): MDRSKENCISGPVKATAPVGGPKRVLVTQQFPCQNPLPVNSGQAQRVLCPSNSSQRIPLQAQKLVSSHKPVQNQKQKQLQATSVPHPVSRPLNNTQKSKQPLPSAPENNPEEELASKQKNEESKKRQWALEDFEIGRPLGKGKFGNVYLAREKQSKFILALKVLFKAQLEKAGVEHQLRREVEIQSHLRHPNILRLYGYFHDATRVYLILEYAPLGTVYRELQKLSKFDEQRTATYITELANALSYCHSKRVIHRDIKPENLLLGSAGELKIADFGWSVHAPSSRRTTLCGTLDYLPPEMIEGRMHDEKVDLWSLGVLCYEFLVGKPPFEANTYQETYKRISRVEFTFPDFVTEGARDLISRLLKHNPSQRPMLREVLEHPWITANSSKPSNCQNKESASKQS

[9] = biological target: Calcium/calmodulin-dependent protein kinase type II subunit delta (Homo sapiens, UniProt Q13557)
[10] = biological target: Fibroblast growth factor receptor 1 (Homo sapiens, UniProt P11362)
[11] = biological target: Casein kinase I isoform alpha (Homo sapiens, UniProt P48729)
[12] = biological target: T2, Serine/threonine-protein kinase TAO1 (Homo sapiens, UniProt Q7L7X3)
T2 sequence (Q7L7X3 whole entry): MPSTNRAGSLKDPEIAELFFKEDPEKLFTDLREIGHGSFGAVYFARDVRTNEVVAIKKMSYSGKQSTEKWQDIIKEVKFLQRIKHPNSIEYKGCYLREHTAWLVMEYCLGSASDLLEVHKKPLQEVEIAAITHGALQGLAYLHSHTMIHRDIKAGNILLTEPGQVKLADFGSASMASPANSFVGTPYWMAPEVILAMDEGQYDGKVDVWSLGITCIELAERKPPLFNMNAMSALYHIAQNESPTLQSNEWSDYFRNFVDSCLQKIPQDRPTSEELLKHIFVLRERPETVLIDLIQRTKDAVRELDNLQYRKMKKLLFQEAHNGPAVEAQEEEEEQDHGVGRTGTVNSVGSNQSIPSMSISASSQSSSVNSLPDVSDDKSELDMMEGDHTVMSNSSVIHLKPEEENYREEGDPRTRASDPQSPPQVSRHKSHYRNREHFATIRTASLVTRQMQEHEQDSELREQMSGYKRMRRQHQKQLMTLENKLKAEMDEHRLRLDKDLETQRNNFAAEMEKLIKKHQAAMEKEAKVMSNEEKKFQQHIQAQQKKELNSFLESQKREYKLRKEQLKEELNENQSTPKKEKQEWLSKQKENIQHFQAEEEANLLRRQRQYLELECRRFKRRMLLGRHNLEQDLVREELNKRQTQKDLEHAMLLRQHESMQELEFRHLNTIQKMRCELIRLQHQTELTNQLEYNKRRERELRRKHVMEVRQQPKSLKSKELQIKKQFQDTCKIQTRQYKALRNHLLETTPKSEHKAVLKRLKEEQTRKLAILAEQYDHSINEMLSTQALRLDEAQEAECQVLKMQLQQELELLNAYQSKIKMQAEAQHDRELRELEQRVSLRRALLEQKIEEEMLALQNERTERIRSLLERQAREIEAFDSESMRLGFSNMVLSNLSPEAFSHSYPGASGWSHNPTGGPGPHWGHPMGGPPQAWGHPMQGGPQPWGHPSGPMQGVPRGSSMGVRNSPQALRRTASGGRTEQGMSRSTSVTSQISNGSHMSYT

Activated CDC42 kinase 1 = Activated CDC42 kinase 1 (Homo sapiens, UniProt Q07912); experiment: Navigating the Kinome. Panel member name: ACK1
[13] = biological target: Vascular endothelial growth factor receptor 2 (Homo sapiens, UniProt P35968)
Misshapen-like kinase 1 = Misshapen-like kinase 1 (Homo sapiens, UniProt Q8N4C8);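 further: kinome panel screen with MINK as the panel member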
[14] = biological target: Rho-associated protein kinase 1 (Homo sapiens, UniProt Q13464);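 further: measured within a broad kinome-wide panel profiling many kinases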
[15] = biological target: Serine/threonine-protein kinase Nek2 (Homo sapiens, UniProt P51955)
[16] = biological target: Cyclin-dependent kinase 8 (Homo sapiens, UniProt P49336); experiment: Navigating the Kinome. Panel member name: CDK8
[17] = biological target: Cyclin-dependent kinase 7 (Homo sapiens, UniProt P50613);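 further: value comes from a kinome-wide kinase profiling panel in which CDK7 is one member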
[18] = biological target: Vascular endothelial growth factor receptor 1 (Homo sapiens, UniProt P17948);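 further: measured within a kinome-wide profiling panel, FLT1 as the panel member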
[19] = biological target: BDNF/NT-3 growth factors receptor (Homo sapiens, UniProt Q16620);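 further: NTRK2 measured as one member of a broad kinome-wide kinase profiling panel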
[20] = biological target: Dual specificity protein kinase CLK4 (Homo sapiens, UniProt Q9HAZ1)
[21] = biological target: Mitogen-activated protein kinase kinase kinase kinase 4 (Homo sapiens, UniProt O95819)
[22] = biological target: Macrophage colony-stimulating factor 1 receptor (Homo sapiens, UniProt P07333);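 further: value comes from the Navigating the Kinome screening panel, CSF1R member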
[23] = biological target: Dual specificity mitogen-activated protein kinase kinase 2 (Homo sapiens, UniProt P36507); experiment: Navigating the Kinome. Panel member name: MAP2K2
[24] = biological target: Mitogen-activated protein kinase 14 (Homo sapiens, UniProt Q16539);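 further: part of a kinome-wide panel, MAPK14 entry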
Mitogen-activated protein kinase 14, sequence (Q16539 whole entry): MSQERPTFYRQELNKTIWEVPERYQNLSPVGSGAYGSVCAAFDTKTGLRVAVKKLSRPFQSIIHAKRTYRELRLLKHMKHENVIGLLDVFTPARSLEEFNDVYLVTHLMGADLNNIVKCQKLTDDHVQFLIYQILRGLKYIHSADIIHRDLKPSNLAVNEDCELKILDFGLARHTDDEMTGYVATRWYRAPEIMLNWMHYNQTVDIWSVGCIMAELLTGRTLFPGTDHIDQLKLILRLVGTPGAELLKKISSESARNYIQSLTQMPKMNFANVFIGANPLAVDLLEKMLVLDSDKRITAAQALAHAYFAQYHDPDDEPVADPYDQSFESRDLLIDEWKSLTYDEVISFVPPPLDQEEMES

Rho-associated protein kinase 1, sequence (Q13464 whole entry): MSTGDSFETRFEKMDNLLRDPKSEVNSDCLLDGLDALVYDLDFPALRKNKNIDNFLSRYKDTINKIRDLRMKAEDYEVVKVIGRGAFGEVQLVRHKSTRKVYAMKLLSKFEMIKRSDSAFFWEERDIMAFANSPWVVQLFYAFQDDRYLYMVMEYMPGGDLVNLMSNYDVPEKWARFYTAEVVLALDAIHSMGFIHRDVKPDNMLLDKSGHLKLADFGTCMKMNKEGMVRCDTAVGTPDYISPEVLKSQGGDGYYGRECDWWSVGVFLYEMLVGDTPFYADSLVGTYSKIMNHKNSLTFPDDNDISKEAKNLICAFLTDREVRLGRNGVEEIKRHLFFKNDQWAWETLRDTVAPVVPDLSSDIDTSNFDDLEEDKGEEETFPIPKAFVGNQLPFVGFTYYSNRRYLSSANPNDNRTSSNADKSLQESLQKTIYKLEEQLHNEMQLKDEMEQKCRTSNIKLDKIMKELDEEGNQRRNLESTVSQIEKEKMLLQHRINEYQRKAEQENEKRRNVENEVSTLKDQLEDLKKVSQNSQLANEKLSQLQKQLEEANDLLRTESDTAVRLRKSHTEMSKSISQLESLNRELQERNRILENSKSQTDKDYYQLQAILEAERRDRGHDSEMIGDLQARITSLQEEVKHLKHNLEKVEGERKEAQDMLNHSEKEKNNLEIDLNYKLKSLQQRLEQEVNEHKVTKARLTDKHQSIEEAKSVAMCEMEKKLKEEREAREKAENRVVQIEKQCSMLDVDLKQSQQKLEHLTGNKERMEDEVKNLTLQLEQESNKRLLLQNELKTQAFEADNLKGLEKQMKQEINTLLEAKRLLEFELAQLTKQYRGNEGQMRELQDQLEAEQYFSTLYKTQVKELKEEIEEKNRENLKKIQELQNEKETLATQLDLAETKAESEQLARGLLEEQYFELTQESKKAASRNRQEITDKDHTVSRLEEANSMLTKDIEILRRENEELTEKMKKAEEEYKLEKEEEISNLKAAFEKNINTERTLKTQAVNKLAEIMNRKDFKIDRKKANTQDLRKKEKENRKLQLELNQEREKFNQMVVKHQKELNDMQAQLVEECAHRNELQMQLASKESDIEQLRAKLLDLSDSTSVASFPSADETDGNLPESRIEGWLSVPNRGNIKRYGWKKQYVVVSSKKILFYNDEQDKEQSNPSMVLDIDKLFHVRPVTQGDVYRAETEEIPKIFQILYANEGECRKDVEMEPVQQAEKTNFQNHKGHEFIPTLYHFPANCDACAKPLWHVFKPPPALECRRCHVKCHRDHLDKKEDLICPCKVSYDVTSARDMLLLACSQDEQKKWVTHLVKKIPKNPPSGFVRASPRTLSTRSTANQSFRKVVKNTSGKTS
Serine/threonine-protein kinase pim-1, sequence (P11309 whole entry): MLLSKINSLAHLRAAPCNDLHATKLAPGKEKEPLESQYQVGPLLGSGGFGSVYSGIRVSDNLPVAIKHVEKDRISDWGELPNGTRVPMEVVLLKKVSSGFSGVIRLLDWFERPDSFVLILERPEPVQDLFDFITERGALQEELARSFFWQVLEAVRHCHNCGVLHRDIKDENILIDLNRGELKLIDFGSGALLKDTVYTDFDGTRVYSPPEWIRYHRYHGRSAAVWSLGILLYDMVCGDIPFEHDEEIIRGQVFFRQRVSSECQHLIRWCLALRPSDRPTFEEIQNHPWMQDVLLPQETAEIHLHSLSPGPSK
Mitogen-activated protein kinase 8, sequence (P45983 whole entry): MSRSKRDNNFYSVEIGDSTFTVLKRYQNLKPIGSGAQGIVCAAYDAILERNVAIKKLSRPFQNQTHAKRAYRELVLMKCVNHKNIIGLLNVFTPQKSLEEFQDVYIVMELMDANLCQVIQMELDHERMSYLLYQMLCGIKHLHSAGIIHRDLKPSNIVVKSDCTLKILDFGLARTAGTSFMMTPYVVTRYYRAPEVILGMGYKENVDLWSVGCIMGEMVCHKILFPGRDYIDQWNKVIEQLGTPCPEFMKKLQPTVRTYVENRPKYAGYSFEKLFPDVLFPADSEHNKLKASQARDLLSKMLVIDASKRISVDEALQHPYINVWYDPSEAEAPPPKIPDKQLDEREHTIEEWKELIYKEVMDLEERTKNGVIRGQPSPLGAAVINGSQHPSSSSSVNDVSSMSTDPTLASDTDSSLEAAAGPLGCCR
Cyclin-dependent kinase 8, sequence (P49336 whole entry): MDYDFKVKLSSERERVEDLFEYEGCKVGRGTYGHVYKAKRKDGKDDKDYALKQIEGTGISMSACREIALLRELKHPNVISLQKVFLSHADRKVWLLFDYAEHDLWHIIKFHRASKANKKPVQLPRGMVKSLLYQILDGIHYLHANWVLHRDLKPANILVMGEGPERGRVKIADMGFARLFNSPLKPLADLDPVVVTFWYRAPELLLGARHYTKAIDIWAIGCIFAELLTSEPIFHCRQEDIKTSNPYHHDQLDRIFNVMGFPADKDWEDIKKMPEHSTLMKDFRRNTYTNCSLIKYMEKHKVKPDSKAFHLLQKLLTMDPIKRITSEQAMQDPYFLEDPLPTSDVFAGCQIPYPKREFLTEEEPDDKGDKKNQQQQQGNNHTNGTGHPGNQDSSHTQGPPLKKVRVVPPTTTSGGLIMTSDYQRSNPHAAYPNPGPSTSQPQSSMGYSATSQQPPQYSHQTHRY
Dual specificity protein kinase CLK4, sequence (Q9HAZ1 whole entry): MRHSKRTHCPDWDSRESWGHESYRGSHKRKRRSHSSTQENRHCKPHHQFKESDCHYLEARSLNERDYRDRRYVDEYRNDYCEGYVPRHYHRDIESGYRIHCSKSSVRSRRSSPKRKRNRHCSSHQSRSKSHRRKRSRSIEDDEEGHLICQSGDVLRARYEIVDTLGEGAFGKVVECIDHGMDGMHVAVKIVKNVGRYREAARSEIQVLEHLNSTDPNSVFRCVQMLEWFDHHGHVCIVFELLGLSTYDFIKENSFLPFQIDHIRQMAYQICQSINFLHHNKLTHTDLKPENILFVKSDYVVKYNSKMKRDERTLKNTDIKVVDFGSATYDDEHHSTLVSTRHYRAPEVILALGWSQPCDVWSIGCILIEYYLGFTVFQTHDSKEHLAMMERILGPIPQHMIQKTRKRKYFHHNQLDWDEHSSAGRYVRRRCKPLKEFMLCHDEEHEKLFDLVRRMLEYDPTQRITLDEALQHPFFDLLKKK
Cyclin-dependent kinase 7, sequence (P50613 whole entry): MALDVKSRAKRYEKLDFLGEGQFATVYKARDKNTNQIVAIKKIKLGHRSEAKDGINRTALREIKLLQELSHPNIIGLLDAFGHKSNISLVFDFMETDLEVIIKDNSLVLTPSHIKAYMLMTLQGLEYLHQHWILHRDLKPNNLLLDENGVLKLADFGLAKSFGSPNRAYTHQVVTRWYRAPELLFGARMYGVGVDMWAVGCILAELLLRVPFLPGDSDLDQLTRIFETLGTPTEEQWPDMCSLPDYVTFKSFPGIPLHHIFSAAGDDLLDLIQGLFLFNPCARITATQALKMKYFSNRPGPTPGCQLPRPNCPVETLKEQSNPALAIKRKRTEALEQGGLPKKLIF
Serine/threonine-protein kinase 17A, sequence (Q9UEE5 whole entry): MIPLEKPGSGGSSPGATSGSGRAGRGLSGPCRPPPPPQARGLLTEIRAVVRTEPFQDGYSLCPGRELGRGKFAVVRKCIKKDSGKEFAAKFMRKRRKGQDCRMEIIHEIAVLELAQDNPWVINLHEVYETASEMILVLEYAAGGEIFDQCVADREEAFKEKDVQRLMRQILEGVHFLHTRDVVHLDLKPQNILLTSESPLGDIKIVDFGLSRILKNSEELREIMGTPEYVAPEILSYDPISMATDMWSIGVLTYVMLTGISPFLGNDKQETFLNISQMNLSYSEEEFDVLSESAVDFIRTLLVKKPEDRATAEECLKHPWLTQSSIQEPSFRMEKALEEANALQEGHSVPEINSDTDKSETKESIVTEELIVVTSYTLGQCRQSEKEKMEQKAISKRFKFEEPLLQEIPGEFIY
Protein kinase C theta type, sequence (Q04759 whole entry): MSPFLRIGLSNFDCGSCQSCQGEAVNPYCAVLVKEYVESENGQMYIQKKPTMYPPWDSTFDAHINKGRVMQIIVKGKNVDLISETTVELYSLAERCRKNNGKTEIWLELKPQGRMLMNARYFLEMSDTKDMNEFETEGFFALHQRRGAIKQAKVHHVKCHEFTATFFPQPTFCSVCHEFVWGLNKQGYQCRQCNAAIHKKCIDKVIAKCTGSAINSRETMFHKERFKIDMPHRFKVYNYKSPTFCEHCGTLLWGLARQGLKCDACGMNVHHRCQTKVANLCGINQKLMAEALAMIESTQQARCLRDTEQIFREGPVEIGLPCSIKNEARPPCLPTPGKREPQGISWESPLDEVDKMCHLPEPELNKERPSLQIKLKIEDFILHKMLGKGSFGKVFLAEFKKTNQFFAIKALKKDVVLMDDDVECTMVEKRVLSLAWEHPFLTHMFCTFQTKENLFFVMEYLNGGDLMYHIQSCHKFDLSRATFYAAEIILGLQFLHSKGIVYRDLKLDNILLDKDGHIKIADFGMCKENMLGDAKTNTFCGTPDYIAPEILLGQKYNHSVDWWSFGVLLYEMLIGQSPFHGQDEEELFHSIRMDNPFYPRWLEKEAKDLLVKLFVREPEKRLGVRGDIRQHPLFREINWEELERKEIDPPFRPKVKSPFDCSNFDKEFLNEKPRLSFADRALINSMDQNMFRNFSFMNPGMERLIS

Row | Ki [1] | Ki [2] | Ki [3] | Ki [4] | Ki [5] | Ki [6] | Ki [7] | Ki [8] | Ki (Aurora kinase A) | Ki [9] | Ki [10] | Ki [11] | Ki [12] | Ki (Activated CDC42 kinase 1) | Ki [13] | Ki (Misshapen-like kinase 1) | Ki [14] | Ki [15] | Ki [16] | Ki [20] | SMILES | also measured
1 | 1.58 µM (active) | > 3.16 µM (inactive) | 0.794 µM (active) | 0.398 µM (active) | > 1.58 µM (inactive) | 0.2 µM (active) | 0.501 µM (active) | 3.98 µM (active) | > 1.58 µM (inactive) | > 3.16 µM (inactive) | > 3.98 µM (inactive) | 1.58 µM (active) | > 6.31 µM (inactive) | > 3.98 µM (inactive) | > 2.51 µM (inactive) | > 2.51 µM (inactive) | > 2 µM (inactive) | > 3.16 µM (inactive) | > 3.98 µM (inactive) | 0.01 µM (active) | O=C(Nc1n[nH]c2ccc(-c3cn(Cc4ccccc4)nn3)cc12)c1cc(F)ccc1F | Ki [17]: 0.2 µM (active); Ki [18]: > 3.98 µM (inactive); Ki [19]: > 3.98 µM (inactive); Ki [21]: 2 µM (active); Ki [22]: > 2.51 µM (inactive); Ki [23]: > 3.98 µM (inactive); Ki [24]: > 3.98 µM (inactive)
2 | – | – | – | – | – | – | > 5.01 µM (inactive) | > 6.31 µM (inactive) | – | – | – | – | > 6.31 µM (inactive) | – | – | – | 1.58 µM (active) | – | 2.51 µM (active) | 0.501 µM (active) | CS(=O)(=O)Nc1ccc(Nc2ccc3[nH]nc(N)c3c2)cc1 | Ki [21]: > 5.01 µM (inactive)
3 | > 2.51 µM (inactive) | > 3.16 µM (inactive) | > 3.16 µM (inactive) | > 1.58 µM (inactive) | 0.316 µM (active) | > 3.98 µM (inactive) | > 3.16 µM (inactive) | > 5.01 µM (inactive) | > 0.794 µM (inactive) | 0.251 µM (active) | > 3.98 µM (inactive) | > 5.01 µM (inactive) | > 3.98 µM (inactive) | > 3.98 µM (inactive) | > 5.01 µM (inactive) | > 7.94 µM (inactive) | > 6.31 µM (inactive) | > 1.58 µM (inactive) | > 3.98 µM (inactive) | > 6.31 µM (inactive) | CS(=O)(=O)N(Cc1ccc2[nH]c(=O)c3cccn3c2c1)C1CC1 | Ki [17]: > 3.98 µM (inactive); Ki [18]: > 2 µM (inactive); Ki [19]: > 3.98 µM (inactive); Ki [22]: > 1.58 µM (inactive); Ki [23]: > 3.98 µM (inactive); Ki [24]: > 3.98 µM (inactive)
